The text below walks through data of patent US20040247639A1, “Novel methods and compositions for the treatment or prevention of dysmenorrhoea and menstrual side effects: the use of phospholipase inhibitors” (priority 2000, published 2004).

Read-outs that look alike come from different tables or passages of the source.

The subject of data set [1] is rat uterus. Briefly: Spontaneous uterine work in uteri of ovarectomised, sex hormone-treated rats. The settings on record: for spontaneous uterine work: uteri removed 4 days after hormone treatment of ovarectomised rats, n=4-5. The text has this: (§1) To examine the potential benefit of PLA2 inhibitors in treating dysmenorrhoea in women, an in vitro model was developed which measured the force and frequency of contractions in a rat uterus. When removed from the rat and placed in an organ bath, the uterus contracts rhythmically. The force of contraction varies with the profile of sex hormones produced by the animal at the different stages of the sexual (oestrus) cycle. Levels of oestrogen and progesterone fluctuate throughout the sexual cycle. To ensure a reproducible model, rats were ovarectomised and oestrogen, progesterone, a combination of oestrogen and progesterone and an inert control substance were given to mimic different stages of the sexual cycle.
(§2) In a separate series of experiments, rats were ovarectomised then treated with sex hormones to ensure animals are at the same stage of the oestrus cycle. Uteri were removed from the rats 4 days after hormone treatment, allowed to equilibrate in the organ baths for 30 minutes, then the intensity of uterine contractions and frequency of the spontaneous contractions was measured. In the oestrogen-primed uteri, spontaneous uterine work was […], in progesterone-primed rats, 10±0.9 mNs^−1, in oestrogen plus progesterone-primed uteri, 9±1.5 mNs^−1 and in control uteri 7.9±0.6 mNs^−1.
(§3) sPLA2 inhibitor 5 and ketoprofen were tested in the model to determine their ability to moderate both spontaneous contractions and contractile activity stimulated by oxytocin.

Data set [2] has as its system rat uterus. Briefly: Oxytocin-challenged uterine work in uteri of ovarectomised, sex hormone-treated rats. Set-up: maximum decrease in the intensity of the oxytocin response: dose or concentration left out as unconfirmed. The following applies: for maximum uterine work with oxytocin: hormone-treated group challenged with 100 mU oxytocin; for inhibition at 0.1 µM: 100 nM; for change of oxytocin EC50 values: 1 nM-1 μM.
Text: as §1, §2
Challenging with oxytocin caused an increase in uterine work over baseline spontaneous activity.
as §3

The target in data set [3] is T1, human non-pancreatic secretory PLA2 (type IIa) (Homo sapiens, UniProt P14555).
T1 sequence (P14555 21-144): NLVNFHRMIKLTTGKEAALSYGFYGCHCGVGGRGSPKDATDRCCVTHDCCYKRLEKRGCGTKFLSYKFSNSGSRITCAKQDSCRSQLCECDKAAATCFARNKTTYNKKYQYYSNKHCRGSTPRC
Briefly: Mixed micelle colorimetric assay for inhibition of human non-pancreatic sPLA2 (type IIa). Type of data set: biochemical. The following applies: thio-PC/Triton X-100 mixed micelles, 37° C., Dixon plot (FIG. 3); read-out: IC50 against human non-pancreatic sPLA2 (type IIa). As to the method:
Reagents were obtained commercially in the sPhospholipase A2 Assay Kit, Cayman Chemical Company MI USA. Buffer (25 mM Tris HCl at pH 7.5, 1 mg/mL BSA, 0.3 mM Triton X-100, 100 mM KCl, 10 mM CaCl2), substrate (diheptanoyl thio-phosphatidyl choline), DTNB (5,5′-dithiobis(2-nitrobenzoic acid)) and a 96 well plate were all provided. Recombinant hIIa-PLA2 was provided by the Garvan Institute for Medical Research. […] Standard inhibitor solutions were prepared from anhydrous DMSO. All samples were run in triplicate including the blank and control samples.
[…] Thio-PC is processed by s-PLA2 and the free thiol produced is detected with DTNB (Ellman's Reagent). 5-Thio-2-nitrobenzoic acid is detected spectrophotometrically at […]. IC50's were determined by assaying inhibitors at a range of concentrations.

Data set [4] concerns monocyte leukotriene release. The settings on record: Cha, 1996; cited from earlier work.
For data set [5], the system named is rat uterus. Description: Rat uterine contractions, spontaneous and oxytocin-induced together. The settings on record: for EC50: Rattus norvegicus; for drug concentrations suppressing spontaneous and oxytocin-induced uterine contractions: rat uterine model.
Text: as §1
In this model the uterine contractions are stimulated by the synthesis and release of eicosanoids and other contractile mediators by cells in the uterus, which then act on the muscle cells in the uterine wall to cause contraction. […] Addition of oxytocin, a hormone synthesised in the pituitary gland, gives uterine contractions of greater force and frequency by increasing the release of eicosanoids (Wassdal, I et al, 1998, Acta Physiol Scand, 164: 47-52, Burns, P D et al, 1998, Domest Anim Endocrinol, 15: 477-487, Asselin, E et al, 1997, Endocrinology, 138: 4798-4805). There is a relationship between the stage of the sexual cycle and the sensitivity of the uterus to oxytocin (Engstrom, T et al., 1999, J. Endocrinol., 161: 403-411). It has been shown that the contractions can be reduced if the synthesis of the mediators is blocked.
(§4) Uteri were removed from rats, divided into 4 segments and placed in organ baths to measure force and frequency of contraction. Spontaneous contractions were measured, then each segment of uterus was challenged with oxytocin (1 μI.U. to 100 mI.U.). The force and frequency of contraction was measured after oxytocin addition and a concentration response curve generated. The drugs—either an sPLA2 inhibitor or a NSAID—was then added to the bath and allowed to equilibrate for 30 minutes. The drugs were tested at concentrations ranging from 1 nM to 10 μM with one piece of tissue per concentration. The tissue was then challenged with increasing concentrations of oxytocin to generate a second concentration-response curve. The EC50 concentrations in control and drug-treated tissue were determined from the curves and compared.

Data set [6] concerns rat uterus. Briefly: Oxytocin-induced contractions of rat uterus in organ bath (naturally-cycling rats).
Text: (§5) To examine the potential benefit of PLA2 inhibitors in treating dysmenorrhoea in women, an in vitro model was developed which measured the force and frequency of contractions in a rat uterus. When removed from the rat and placed in an organ bath, the uterus contracts rhythmically. The force of contraction varies with the profile of sex hormones produced by the animal at the different stages of the sexual (oestrus) cycle. Levels of oestrogen and progesterone fluctuate throughout the sexual cycle. […]
(§6) In this model the uterine contractions are stimulated by the synthesis and release of eicosanoids and other contractile mediators by cells in the uterus, which then act on the muscle cells in the uterine wall to cause contraction. Compounds 5 and 9 were tested for their ability to inhibit spontaneous and oxytocin-induced contractions of a female rat uterus (described ahead). Addition of oxytocin, a hormone synthesised in the pituitary gland, gives uterine contractions of greater force and frequency by increasing the release of eicosanoids (Wassdal, I et al, 1998, Acta Physiol Scand, 164: 47-52, Burns, P D et al, 1998, Domest Anim Endocrinol, 15: 477-487, Asselin, E et al, 1997, Endocrinology, 138: 4798-4805). There is a relationship between the stage of the sexual cycle and the sensitivity of the uterus to oxytocin (Engstrom, T et al., 1999, J. Endocrinol., 161: 403-411). It has been shown that the contractions can be reduced if the synthesis of the mediators is blocked.
as §4

The test system of data set [7] is rat uterus. Briefly: Spontaneous contractions of rat uterus in organ bath (naturally-cycling rats).
Text: as §5, §6, §4

Data set [8] concerns the target T2, type V human non-pancreatic sPLA2 (Homo sapiens, UniProt P39877).
T2 sequence (P39877 21-138): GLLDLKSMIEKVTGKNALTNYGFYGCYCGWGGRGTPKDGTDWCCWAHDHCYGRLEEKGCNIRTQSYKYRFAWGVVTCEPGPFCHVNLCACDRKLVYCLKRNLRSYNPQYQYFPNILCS
The settings on record: Chen, Y. et al, 1998; cited from earlier work.

[9] abbreviates: Rattus norvegicus, Oestrogen (O) group, mean ± SEM, read-out: maximum inhibition of uterine work, oxytocin challenge.
Setting [10] is: Rattus norvegicus, Vehicle group, mean ± SEM, read-out: maximum inhibition of uterine work, oxytocin challenge.
Where [11] appears, read: range over spontaneous and oxytocin-induced contractions, read-out: EC50, inhibition of uterine contractions.
The mark [12] stands for this setting: Table 1, rat uterus model, read-out: ED50 Oxytocin-induced contractions.
The mark [13] stands for this setting: Table 1, rat uterus model, read-out: ED50 Spontaneous contractions.
Setting [14] is: Table 1, rat uterus model, NSAIDs.

On to `CC(=O)[C@H]1CC[C@H]2[C@@H]3CCC4=CC(=O)CC[C@]4(C)[C@H]3CC[C@]12C` [progesterone], for which the spontaneous uterine work in the data set on rat uterus [1] is reported as 10±0.9 mNs^−1. Besides, the “maximum uterine work with oxytocin” value in the data set with rat uterus [2] is given as 0.9 mNs^−1.
As usually defined, the melting point is the temperature of the solid-liquid transition. In general, inhibition refers to the drop in the measured response relative to a control, in per cent. The IC50 is the concentration needed to halve the response being measured. Consider `O=C(O)CC[C@@H](CSc1ccc(Cc2ccccc2)cc1)NC(=O)CCCCCCc1ccccc1` [Compound 5, (S)-5-(4-Benzyl-phenylsulfanyl)-4-(7-phenyl-heptanoylamino)-pentanoic acid], for which the melting point was 89 to 91.5 °C. Further, in the data set on rat uterus [1] (oestrogen and progesterone treated uteri, 1 nM-1 μM, n=5), the “effect on spontaneous activity” value is recorded as “did not inhibit”. The “effect on spontaneous activity” value with rat uterus [1] (oestrogen treated uteri, 10 nM, n=4, P<0.05) was “inhibited”. For the same molecule, in the data set on rat uterus [1] (oil vehicle (control) rats, 1 nM, n=4, P<0.05), the “effect on spontaneous activity” value is listed as “inhibited spontaneous activity”. Further, the “effect on spontaneous activity” value in the data set on rat uterus [1] (progesterone treated uteri, 1 nM-1 μM, n=5) is “did not significantly inhibit”. Further, the inhibition at 0.001 µM in the data set with rat uterus [2] (Rattus norvegicus, O + P group, 1 nM, mean ± SEM, read-out: maximum inhibition of uterine work, oxytocin challenge) turned out to be 62%. Moreover, in the data set on rat uterus [2] (setting [9]), the inhibition at 0.1 µM came out at 34%. For the same molecule, in the data set on rat uterus [2] (Rattus norvegicus, Progesterone (P) group, 10 nM, mean ± SEM, read-out: maximum inhibition of uterine work, oxytocin challenge), the inhibition at 0.01 µM worked out at 65%. Moreover, the inhibition at 0.1 µM in the data set with rat uterus [2] (setting [10]) was 40%. The “change of oxytocin EC50 values” with rat uterus [2] (oestrogen and progesterone treated uteri, n=5) is listed as “did not inhibit”. In the data set on rat uterus [2] (oestrogen treated uteri), the “maximum decrease in the intensity of the oxytocin response” value was 34%±5%. Further, in the data set with rat uterus [2] (oestrogen treated uteri, n=4), the “change of oxytocin EC50 values” is “did not alter”. Further, the concentration for half-maximal inhibition (IC50) in data set [3] stood at 42 nM. In addition, in [4], the IC50 was 350 nM. Further, the “potency in inhibiting uterine contractions compared to NSAIDs” value in the data set on rat uterus [5] was 1,000 fold. For the same molecule, the EC50 with rat uterus [5] (setting [11]) is 1 to 20 nM. Also, the EC50 with rat uterus [6] (Rattus norvegicus, FIG. 5, n=3, read-out: ED50, uterine contractions induced by oxytocin) worked out at 20 nM. Further, the EC50 in the data set with rat uterus [6] (setting [12]) was determined as 20 nM. In addition, the EC50 with rat uterus [7] (Rattus norvegicus, FIG. 4, n=3, read-out: EC50, spontaneous activity of rat uteri in the organ bath) was 30 nM. Besides, the EC50 with rat uterus [7] (setting [13]) came out at 30 nM.
Consider `Cc1c(CC(N)=O)c2cc(OCCCP(=O)(O)O)ccc2n1Cc1ccccc1` [Compound 9, [3-(1-Benzyl-3-carbamoylmethyl-2-methyl-1H-indol-5-yloxy)-propyl]-phosphonic acid], for which the IC50 in data set [8] is 36 nM. Further, the EC50 with rat uterus [5] (FIG. 6, n=2, read-out: EC50, spontaneous contraction and oxytocin induced contractions in rat uterus) is approximately 100 nM; in the data set with rat uterus [5] (setting [11]) it was 80 to 200 nM; in the data set with rat uterus [6] (setting [12]), 200 nM; in the data set with rat uterus [7] (setting [13]), 80 nM.
`Cc1c(Nc2ncccc2C(=O)O)cccc1C(F)(F)F` [Flunixin, flunixin meglumine, reference compound]: the “drug concentrations suppressing spontaneous and oxytocin-induced uterine contractions” value with rat uterus [5] is given as “micromolar to millimolar”. The “effect on oxytocin-induced contractions” value in the data set on rat uterus [6] (FIG. 7, n=3) is given as “no effect”. Also, the EC50 came to 1000 nM in the data set on rat uterus [6] (Table 1, rat uterus model, NSAIDs, read-out: ED50 Oxytocin-induced contractions) and 1000 nM in the data set on rat uterus [7] (Table 1, rat uterus model, NSAIDs, read-out: ED50 Spontaneous contractions). Also, the “effect on spontaneous rat uterine contractions” value with rat uterus [7] (FIG. 7, 1 μM and 5 μM, n=3) is recorded as “reduced spontaneous contractions”.
Regarding `CN1C(C(=O)Nc2ccccn2)=C(O)c2ccccc2S1(=O)=O` [Piroxicam, piroxicam, reference compound], in the data set on rat uterus [5], the “drug concentrations suppressing spontaneous and oxytocin-induced uterine contractions” value is “micromolar to millimolar”. Besides, the “ED50 Oxytocin-induced contractions” value in the data set with rat uterus [6] (setting [14]) is reported as “No Effect”. Further, the “ED50 Spontaneous contractions” value in the data set with rat uterus [7] (setting [14]) was “No effect”.
For `CC(C(=O)O)c1cccc(C(=O)c2ccccc2)c1` (stereo not drawn) [Ketoprofen, ketoprofen, reference compound], the “maximum inhibition of uterine work, oxytocin challenge” value with rat uterus [2] (O + P group, up to 10 μM) is “no inhibitory effect”. In addition, the inhibition at 0.1 µM with rat uterus [2] (setting [9]) came to 29%; with rat uterus [2] (Rattus norvegicus, Progesterone (P) group, mean ± SEM, read-out: maximum inhibition of uterine work, oxytocin challenge), 84%; in the data set on rat uterus [2] (setting [10]), 79%.
As to `COc1ccc2cc([C@H](C)C(=O)O)ccc2c1` [naproxen, reference compound], the “drug concentrations suppressing spontaneous and oxytocin-induced uterine contractions” value in the data set with rat uterus [5] was “micromolar to millimolar”.
For oestrogen, the spontaneous uterine work with rat uterus [1] came out at 7.2±1.4 mNs^−1. Moreover, the “maximum uterine work with oxytocin” value in the data set with rat uterus [2] was 15.7 mNs^−1.
